# Measured values as given in US5362480A, “Oral hygiene compositions containing amino sugars as antiplaque agents” (Lever Brothers Company, Division of Conopco, Inc., priority 1992, dated 1994).
# Like-named read-outs stand apart in the source and are kept apart here.
# How the values were obtained:
# [1] = Bacterial coaggregation assay (A. naeslundii PK29 with S. sanguis G9B); format: cell-based, Actinomyces naeslundii PK29; Streptococcus sanguis G9B; conditions: Actinomyces naeslundii
# Protocol: (§1) A bacterial coaggregation assay was used to determine the ability of various amino sugars to interfere with lectin-mediated binding among various bacterial species. For instance, many Actinomyces naeslundii strains coaggregate with Streptococcus sanguis as a result of binding between a lectin produced by the A. naeslundii cells and β-galactose-containing structures on the surface of the streptococci. For the present assay, A. naeslundii PK29 and S. sanguis G9B were cultured overnight in a medium containing 2.5% tryptone, 1.5% yeast extract, 0.1% magnesium sulfate, and 1.0% fructose. The cells were then washed twice in a 1.0 mM potassium phosphate buffer (pH=6.8) containing 1.0 mM calcium chloride, 0.1 mM magnesium chloride, and 50.0 mM potassium chloride (buffered KCl), after which they were resuspended in buffered KCl at an optical density (540 nm) of 1.5. The coaggregations were performed by combining 0.5 ml of each bacterial suspension with 0.2 ml of 5.0% bovine serum albumin (BSA) and 0.8 ml of an appropriate concentration of a targeted anti-plaque agent in 3.0 ml capped polystyrene cuvettes. The cuvettes (path length 1 cm) were gently inverted at room temperature, and the optical density (540 nm) was determined as a function of time (2.0 min intervals; 20 min).
# (§2) The instrument employed to measure optical density was a variable wavelength spectrophotometer (Gilson Respons® Spectrophotometer, bought from Gilson).
# (§3) The activity of a tested compound was expressed as inhibition relative to buffer controls (i.e., % inhibition=[1-change in optical density (inhibitor)]/change in optical density [control])×100.
# (§4) The ability of various amino sugars (prepared as described in Examples 1 and 2) to target to β-galactose-specific binding proteins on A. naeslundii and thus to interfere with coaggregation interactions between A. naeslundii and S. sanguis was investigated. Coaggregation of Actinomyces naeslundii PK29 and Streptococcus sanguis G9B was performed as described in the Methods section (Bacterial Coaggregation Assay) above. Inhibition was calculated as 1.0--the change in optical density (540 nm) in the sample containing compound tested/the change in optical density in the coaggregation buffer control.
# [2] = test system: coaggregation of Actinomyces naeslundii PK29 and Streptococcus sanguis G9B (β-galactose-specific binding proteins on A. naeslundii); experiment: as above; format: cell-based; conditions: for inhibition compared to the parent saccharide, lactose: vs lactose
# Protocol: as §1, §2, §3, §4
# Actinomyces naeslundii [3] = experiment: Antimicrobial activity determination (MIC); format: cell-based; conditions: read-out: Minimum Inhibitory Concentration, Actinomyces naeslundii
# Protocol: (§5) The antimicrobial activity of the targeted agents was assessed by determining the minimum inhibitory concentration (MIC). Pure cultures of various strains of oral bacterial species as indicated in Table 3 were combined with serial dilutions of the targeted agents in beef heart infusion broth (BHI); starting bacterial concentrations were approximately 1.0×10E6 colony forming units (CFU) per ml. The mixtures were incubated aerobically at 37 degrees C. and the optical density (540 nm, path length 1 cm) of the cultures was measured at 0.0, 24.0 and 48.0 hr using Bausch and Lomb Spec 20 variable wavelength spectrophotometer.
# (§6) The amino sugars within the scope of the invention and other compounds were tested for their bacteriostatic effects on the growth of several species of oral bacteria.
# Streptococcus sanguis = experiment: Antimicrobial activity determination (MIC); format: cell-based; conditions: read-out: Minimum Inhibitory Concentration, Streptococcus sanguis
# Protocol: as §5, §6
# Streptococcus sobrinus = experiment: Antimicrobial activity determination (MIC); format: cell-based, Streptococcus sobrinus 6715; conditions: read-out: Minimum Inhibitory Concentration, Streptococcus sobrinus
# Protocol: as §5, §6
# Neisseria subflava = experiment: Antimicrobial activity determination (MIC); format: cell-based, Neisseria subflava A1078; conditions: read-out: Minimum Inhibitory Concentration, Neisseria subflava
# Protocol: as §5, §6
# Porphyromonas gingivalis = experiment: Antimicrobial activity determination (MIC); format: cell-based, Porphyromonas gingivalis W83; conditions: read-out: Minimum Inhibitory Concentration, Porphyromonas gingivalis
# Protocol: as §5, §6
# Prevotella intermedius = experiment: Antimicrobial activity determination (MIC); format: cell-based, Prevotella intermedius 25611; conditions: BHI broth, 37 degrees C., aerobic, read-out: Minimum Inhibitory Concentration, Prevotella intermedius
# Protocol: as §5, §6
# Veillonella dispar = experiment: Antimicrobial activity determination (MIC); format: cell-based, Veillonella dispar 17745; conditions: BHI broth, 37 degrees C., aerobic, read-out: Minimum Inhibitory Concentration, Veillonella dispar
# Protocol: as §5, §6
# A. naeslundii PK29 = experiment: Latex bead-bacterial agglutination assay (asialofetuin-coated latex beads); format: cell-based, Actinomyces naeslundii PK29
# Protocol: A latex bead agglutination assay was utilized to determine the effects of the amino sugars on lectin-mediated bacterial adherence to glycoprotein-coated surfaces. Latex beads (6.0 micrometer diameter) were prepared by suspending them in a 0.5 mg/ml solution of asialofetuin (a glycoprotein rich in oligosaccharide side chains which terminate in β-galactosyl groups) in 20.0 mM trishydroxyaminomethane buffer (ph=8.2) containing 0.73% glycine, 1.0% sodium chloride, 0.1 mM calcium chloride, and 0.02% sodium azide (TGS buffer). The beads were treated for 30.0 min at 37 degrees C. after which they were washed and resuspended in 0.1% BSA in TGS buffer. A. naeslundii PK29 cells were cultured as described in Bacterial Coaggregation Assay, washed, and resuspended in TGS buffer to an optical density (540 nm) of 1.5. The bacterial suspension (0.1 ml) and the prepared latex beads (1.0 ml) were combined with an appropriate concentration of inhibitor (0.8 ml) in 3.0 ml capped polystyrene cuvettes. The cuvettes were gently inverted at room temperature, and optical density (OD 540nm, 1 cm path length) was monitored at 2.0 min intervals for 20.0 min. The instrument employed was Gilson Response®.
# The ability of the amino sugars to inhibit bacterial adhesion was also tested using the latex bead assay described above (Methods section). This assay measures the ability of the test agents to interfere with bacterial adhesion to a glycoprotein-coated solid surface, which is analogous to pellicle coated tooth surface. Agglutination of asialofetuin-coated latex beads by A. naeslundii PK29 performed as described above. Inhibition was calculated as 1.0--the change in optical density (540 nm) in the sample containing the inhibitor/the change in optical density in the coaggregation buffer control.
# [4] = test system: Actinomyces strains 12104 and LY7; conditions: cited from earlier work
# Clinical plaque strains = conditions: mouth rinse, five human individuals; cited from earlier work
# Actinomyces viscosus = conditions: cited from earlier work
# Actinomyces naeslundii [5] = conditions: cited from earlier work
# [6] = BHI broth, 37 degrees C., aerobic
smiles,measurement,setting,value
CCCCCCCCCCN[C@@H]1O[C@H](CO)[C@@H](O[C@@H]2O[C@H](CO)[C@H](O)[C@H](O)[C@H]2O)[C@H](O)[C@H]1O [N-decyl lactosylamine],inhibition at 1000 µM,[1],11%
same,inhibition at 2100 µM,[1],30%
same,inhibition at 3000 µM,[1],64%
same,inhibition of β-galactose-specific coaggregation (in words),[2],effective inhibitors
same,"inhibition compared to the parent saccharide, lactose",[2],slighly improved inhibition
same,MIC,Actinomyces naeslundii [3]; [6],30 µg/mL
same,MIC,Streptococcus sanguis; [6],600 µg/mL
same,MIC,Streptococcus sobrinus; [6],30 µg/mL
same,MIC,Neisseria subflava; [6],60 µg/mL
"CCCCCCCCCCCCOS(=O)(=O)[O-].[Na+] [Sodium dodecyl sulfate, reference compound]",MIC,Actinomyces naeslundii [3],8 µg/mL
same,MIC,Streptococcus sanguis,15 µg/mL
same,MIC,Streptococcus sobrinus,60 µg/mL
same,MIC,Porphyromonas gingivalis,2 µg/mL
same,MIC,Prevotella intermedius,16 µg/mL
same,MIC,Veillonella dispar,60 µg/mL
same,MIC,Neisseria subflava,8 µg/mL
"OC[C@H]1O[C@@H](O[C@H]2[C@H](O)[C@@H](O)C(O)O[C@@H]2CO)[C@H](O)[C@@H](O)[C@H]1O (stereo partly drawn) [Lactose, reference compound]",inhibition at 3000 µM,[1],61%
"O=C[C@H](O)[C@@H](O)[C@@H](O)[C@H](O)CO [Galactose, reference compound]",inhibition at 2800 µM,[1],10%
same,inhibition at 2800 µM,"A. naeslundii PK29; Actinomyces naeslundii, PK29",17%
CCO[C@H]1O[C@H](CO)[C@H](O)[C@H](O[C@@H]2O[C@H](CO)[C@H](O)[C@H](O)[C@H]2NC(C)=O)[C@H]1O [GalNAcβ-3Galα1-O-ethyl],adherence,[4],blocked adherence
same,plaque inhibitory activity,Clinical plaque strains,plaque inhibitory activity
CCCCCCCN[C@@H]1O[C@H](CO)[C@H](O)[C@H](O)[C@H]1O [N-heptyl galactosylamine],inhibition at 2900 µM,[1],20%
same,inhibition of β-galactose-specific coaggregation (in words),[2],effective inhibitors
same,"inhibition of bacterial coaggregation compared to the parent saccharide, galactose","[2]; at the concentration tested, vs galactose",approximately twice as much
same,MIC,Actinomyces naeslundii [3]; [6],250 µg/mL
same,MIC,Streptococcus sanguis; [6],> 1000 µg/mL
same,MIC,Streptococcus sobrinus; [6],1000 µg/mL
same,MIC,Porphyromonas gingivalis; [6],125 µg/mL
same,MIC,Neisseria subflava; [6],125 µg/mL
CCCCCCCCCCNC1O[C@H](CO)[C@@H](O)[C@H](O)[C@H]1O (stereo partly drawn) [N-decyl glucosylamine],inhibition of agglutination of glycoprotein-coated latex beads (in words),A. naeslundii PK29,not an effective inhibitor
same,inhibition at 1800 µM,"A. naeslundii PK29; Actinomyces naeslundii, PK29",9%
same,MIC,Actinomyces naeslundii [3]; [6],> 5000 µg/mL
CCCCCCCCCCN[C@@H]1O[C@H](CO)[C@H](O)[C@H](O)[C@H]1O [N-decyl galactosylamine],inhibition at 1800 µM,"A. naeslundii PK29; Actinomyces naeslundii, PK29",51%
same,inhibition of agglutination compared to galactose,A. naeslundii PK29; vs galactose,substantially more potent inhibitor
CCCCCCCN[C@@H]1O[C@H](CO)[C@@H](O[C@@H]2O[C@H](CO)[C@H](O)[C@H](O)[C@H]2O)[C@H](O)[C@H]1O [N-heptyl lactosylamine],inhibition at 1100 µM,[1],23%
same,inhibition at 3000 µM,[1],63%
same,inhibition at 11400 µM,[1],79%
same,inhibition of β-galactose-specific coaggregation (in words),[2],effective inhibitors
same,"inhibition compared to the parent saccharide, lactose",[2],slighly improved inhibition
same,MIC,Actinomyces naeslundii [3]; [6],500 µg/mL
same,MIC,Streptococcus sanguis; [6],> 1000 µg/mL
same,MIC,Streptococcus sobrinus; [6],1000 µg/mL
same,MIC,Porphyromonas gingivalis; [6],500 µg/mL
same,MIC,Neisseria subflava; [6],500 µg/mL
"CCCCCCCCNC1O[C@H](CO)[C@@H](O)[C@H](O)[C@H]1O (stereo partly drawn) [N-octyl glucosylamine, reference compound]",inhibition at 3400 µM,[1],0%
same,inhibition of β-galactose-specific coaggregation (in words),[2],lack of inhibition
"CCOC1O[C@H](CO)[C@H](O)[C@H](O[C@@H]2O[C@H](CO)[C@H](O)[C@H](O)[C@H]2NC(C)=O)[C@H]1O (stereo partly drawn) [N-acetyl-galactosamine-β1,3-galactose-O-ethyl]",inhibition of binding to human erythrocytes,Actinomyces viscosus,inhibitor of binding
same,inhibition of binding to human erythrocytes,Actinomyces naeslundii [5],inhibitor of binding
